Common to all, as to type: cell-based
In test [1] the test system is LAPC4 prostate cancer cells. The experiment in a line: Antiproliferative effects in LAPC4 cells (CellTiter Glo). The following applies: LAPC4 cells (AKT1 E17K allele), read-out: LAPC4 proliferation IC50. In short, it runs like this: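 Growth inhibition is gauged by intracellular ATP content, measured with CellTiter Glo 72 h after compound addition to 1,000 seeded cells per well. IC50 derives from a Hill equation fit.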

In the next test the target is T1, AKT1 E17K (Homo sapiens, UniProt P31749, E17K).
T1 construct: expressed in transfected cells; host or cells: HEK293
As to the kind of experiment: Live cell AKT1 E17K target engagement by NanoBRET competitive probe displacement. The following applies: HEK293 cells transfected with kinase-NanoLuciferase fusion, 2 h at 37° C. In short, it runs like this:
(§1)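 Steps: overnight transfection of HEK293 with kinase-NanoLuc plasmids; addition of compound dilutions and tracer (~EC50); 2 h incubation at 37 °C; substrate plus extracellular luciferase inhibitor; luminescence at 460 and 600 nm. IC50 values came from fitting the BRET ratio to a Hill equation.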
On the technique in general: BRET reads energy transfer from a luciferase to a nearby fluorophore.

A further test concerns the target T2, AKT2 (Homo sapiens, UniProt P31751).
T2 construct: expressed in transfected cells; host or cells: HEK293
As to the kind of experiment: Live cell AKT2 target engagement by NanoBRET competitive probe displacement. The following applies: HEK293 cells transfected with kinase-NanoLuciferase fusion, 2 h at 37° C. In short, it runs like this: as §1

The next test deals with T3, AKT1 WT (Homo sapiens, UniProt P31749).
T3 construct: expressed in transfected cells; host or cells: HEK293
As to the kind of experiment: Live cell AKT1 WT target engagement by NanoBRET competitive probe displacement. The following applies: HEK293 cells transfected with kinase-NanoLuciferase fusion, 2 h at 37° C. In short, it runs like this: as §1

Where two headings read alike, the source gives them in different places.

T1 sequence (P31749 whole entry E17K): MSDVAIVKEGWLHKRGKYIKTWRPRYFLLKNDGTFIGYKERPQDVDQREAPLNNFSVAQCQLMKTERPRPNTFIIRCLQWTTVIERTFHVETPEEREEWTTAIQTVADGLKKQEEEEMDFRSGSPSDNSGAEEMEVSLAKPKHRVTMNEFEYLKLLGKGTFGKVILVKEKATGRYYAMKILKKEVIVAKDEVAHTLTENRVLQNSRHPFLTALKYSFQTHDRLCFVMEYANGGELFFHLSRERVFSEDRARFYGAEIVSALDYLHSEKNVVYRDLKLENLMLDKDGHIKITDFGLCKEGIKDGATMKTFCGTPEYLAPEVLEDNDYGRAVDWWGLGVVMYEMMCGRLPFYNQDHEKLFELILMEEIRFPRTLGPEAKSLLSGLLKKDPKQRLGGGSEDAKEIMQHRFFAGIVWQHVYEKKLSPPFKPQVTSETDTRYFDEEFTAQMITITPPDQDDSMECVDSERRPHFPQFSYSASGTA
T3 sequence (P31749 whole entry): as the sequence (P31749 whole entry E17K) above, with K17E counted along it
T2 sequence (P31751 whole entry): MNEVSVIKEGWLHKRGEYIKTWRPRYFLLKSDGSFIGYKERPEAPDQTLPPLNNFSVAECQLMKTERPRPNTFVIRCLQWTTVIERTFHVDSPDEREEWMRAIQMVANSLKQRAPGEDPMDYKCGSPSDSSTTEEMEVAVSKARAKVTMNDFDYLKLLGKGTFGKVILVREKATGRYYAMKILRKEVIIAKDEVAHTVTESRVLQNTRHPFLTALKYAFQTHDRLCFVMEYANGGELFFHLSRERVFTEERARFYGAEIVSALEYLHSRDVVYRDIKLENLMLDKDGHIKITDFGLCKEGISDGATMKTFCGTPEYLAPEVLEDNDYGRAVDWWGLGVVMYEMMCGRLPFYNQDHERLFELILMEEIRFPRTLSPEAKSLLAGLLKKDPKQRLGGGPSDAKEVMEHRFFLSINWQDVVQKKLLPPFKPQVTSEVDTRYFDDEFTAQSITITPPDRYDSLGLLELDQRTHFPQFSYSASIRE

As for `C=C(F)C(=O)Nc1cnn(C)c1C(=O)N[C@H]1CCc2cc(-n3c(-c4cccnc4N)nc4ccc(-n5cccn5)nc43)ccc21` [Example 35, (S)-N-(5-(2-(2-aminopyridin-3-yl)-5-(1H-pyrazol-1-yl)-3H-imidazo[4,5-b]pyridin-3-yl)-2,3-dihydro-1H-inden-1-yl)-4-(2-fluoroacrylamido)-1-methyl-1H-pyrazole-5-carboxamide], the IC50 in test [1] (Homo sapiens, LAPC4, 72 h) was 5660 nM; on AKT1 E17K it was above 1000 nM; at AKT2 it was 2940 nM; on AKT1 WT, 243 nM.
As to `C=CC(=O)N1CCOCC(N[C@H]2CCc3cc(-n4c(-c5cccnc5N)nc5ccc(-n6cccn6)nc54)ccc32)C1` (single isomer, unassigned) [Example 54, 1-((*)-6-(((S)-5-(2-(2-aminopyridin-3-yl)-5-(1H-pyrazol-1-yl)-3H-imidazo[4,5-b]pyridin-3-yl)-2,3-dihydro-1H-inden-1-yl)amino)-1,4-oxazepan-4-yl)prop-2-en-1-one], the IC50 in test [1] (72 h) turned out to be 107 nM; on AKT1 E17K, 58.5 nM; on AKT2 it was 292 nM; on AKT1 WT it was 27.1 nM.
Take `Nc1ncccc1-c1nc2ccc(-n3cccn3)nc2n1-c1ccc2c(c1)CC[C@@H]2NC1CCN(C(=O)[C@@H]2CO2)CC1` [Example 123, 3-{3-[(1S)-1-({1-[(2S)-oxirane-2-carbonyl]piperidin-4-yl}amino)-2,3-dihydro-1H-inden-5-yl]-5-(pyrazol-1-yl)imidazo[4,5-b]pyridin-2-yl}pyridin-2-amine]: the IC50 in test [1] (Homo sapiens, LAPC4, 72 h) was found to be 736 nM; at AKT1 E17K, 42.4 nM; at AKT2 it was 393 nM; at AKT1 WT it was 30.9 nM.
Consider `C=C(F)C(=O)N1CCC2(CC1)CC(N[C@H]1CCc3cc(-n4c(-c5cccnc5N)nc5ccc(-n6cccn6)nc54)ccc31)C2` [Example 84, (S)-1-(2-((5-(2-(2-aminopyridin-3-yl)-5-(1H-pyrazol-1-yl)-3H-imidazo[4,5-b]pyridin-3-yl)-2,3-dihydro-1H-inden-1-yl)amino)-7-azaspiro[3.5]nonan-7-yl)-2-fluoroprop-2-en-1-one], for which the IC50 in test [1] (Homo sapiens, LAPC4, 72 h) came out at 327 nM; on AKT1 E17K it was 264 nM; at AKT2, 278 nM; on AKT1 WT, 34.1 nM.
As for `C=CC(=O)N1CCC(N[C@H]2CCc3cc(-n4c(-c5cccnc5N)nc5ccc(-c6ccccn6)nc54)ccc32)CC1` [Example 207, (S)-1-(4-((5-(2-(2-aminopyridin-3-yl)-5-(pyridin-2-yl)-3H-imidazo[4,5-b]pyridin-3-yl)-2,3-dihydro-1H-inden-1-yl)amino)piperidin-1-yl)prop-2-en-1-one], the IC50 in test [1] (Homo sapiens, LAPC4, 72 h) came to 114 nM; on AKT1 E17K it was 7.07 nM; at AKT2 it was 35.2 nM; at AKT1 WT, 48.8 nM.
Consider `C=CC(=O)N1CCc2ccc(C(=O)N[C@H]3CCc4cc(-n5c(-c6cccnc6N)nc6ccc(-n7cccn7)nc65)ccc43)cc21` [Example 7, (S)-1-acryloyl-N-(5-(2-(2-aminopyridin-3-yl)-5-(1H-pyrazol-1-yl)-3H-imidazo[4,5-b]pyridin-3-yl)-2,3-dihydro-1H-inden-1-yl)indoline-6-carboxamide], for which the IC50 in test [1] (Homo sapiens, LAPC4, 72 h) was 2060 nM; at AKT1 E17K, 42.8 nM; on AKT2, 69.4 nM; on AKT1 WT it was 20.7 nM.
As for `C=CC(=O)N1CCC(N[C@H]2CCc3cc(-n4c(-c5cccnc5N)nc5ccc(C6CC6)nc54)ccc32)C(F)C1` (mixture of isomers) [Example 175, 1-(4-(((S)-5-(2-(2-aminopyridin-3-yl)-5-cyclopropyl-3H-imidazo[4,5-b]pyridin-3-yl)-2,3-dihydro-1H-inden-1-yl)amino)-3-fluoropiperidin-1-yl)prop-2-en-1-one], the IC50 in test [1] (Homo sapiens, LAPC4, 72 h) was 271 nM; at AKT1 E17K it was 17.9 nM; at AKT2, 123 nM; on AKT1 WT, 820 nM.

Values taken from patent publication US12570655B2, “Cysteine covalent modifiers of AKT1 and uses thereof” (Terremoto Biosciences, Inc., priority 2023, dated 2026).
